Test results from patent EP0498830B1, “GLUTAMIC AND ASPARTIC ACID DERIVATIVES WITH ANTIGASTRIN ACTIVITY AND A METHOD FOR THEIR PREPARATION” (ROTTA RESEARCH LABORATORIUM S.P.A., priority 1989, dated 1991).
In brackets after ≈: the same amount, converted by molar mass. Like-named read-outs stand apart in the source and are kept apart here.

Columns and labels:
[1] = test system: gastric acid secretion induced by pentagastrin; experiment: Antisecretive activity in anaesthetised rats, stimulant pentagastrin; format: in vivo; details: Rattus norvegicus, iv; pentagastrin 30 mcg/kg/h; I.V. bolus; anaesthetised rats; read-out: Antagonistic activity (ED50 mg/kg IV) towards gastric acid secretion induced by pentagastrin
Description: The antisecretive activity was determined in rats with the use of male animals weighing about 200g, anaesthetised with urethane. Gastric secretion was stimulated with pentagastrin. K.S. Lai's method (Gut 5, (1964), 327-341) was used, with slight modifications.
After tracheotomy, oesophageal and duodenal cannulae were inserted. A tepid solution (37°C) of 0.25 mM NaOH was perfused through the stomach by means of a peristaltic pump at a constant flow rate of 1 ml/minute. After stabilisation for 20 minutes, the dose of the stimulant, indicated in Table 3, dissolved in a physiological solution, was perfused for 120 minutes at a rate of 0.95 ml/hour. After 60 minutes of perfusion (basic stimulation), the products under test were administered intravenously (I.V.) in boli whilst the perfusion of the stimulant continued for a further 60 minutes. The acid secretion was recorded continuously as a function of time.
The activity of the product was evaluated as the reduction in the secreted acidity after administration of the product as a percentage of the basic acidity measured during the first 60 minutes of collection during which only pentagastrin was present.
The antagonistic compounds tested were administered in different doses so that an ID50 (that is the dose (in mg/Kg I.V.) which can inhibit the effect of the pentagastrin by 50% could be calculated.
The results thus obtained are given in the following table in which the activities of the compounds are expressed as ID50s under the stimulus of pentagastrin at 30 mcg/Kg/h.

[2] = biological target: T1, gastrin receptor sites on the parietal cell membranes of the fundic mucosa of a guinea-pig stomach (Cavia porcellus, UniProt H0VZC5); experiment: Inhibition of binding of tritiated pentagastrin to isolated guinea-pig gastric glands; design: from tissue; host or cells: isolated gastric glands from guinea-pig fundic mucosa (collagenase digestion)
T1 sequence (H0VZC5 1-426): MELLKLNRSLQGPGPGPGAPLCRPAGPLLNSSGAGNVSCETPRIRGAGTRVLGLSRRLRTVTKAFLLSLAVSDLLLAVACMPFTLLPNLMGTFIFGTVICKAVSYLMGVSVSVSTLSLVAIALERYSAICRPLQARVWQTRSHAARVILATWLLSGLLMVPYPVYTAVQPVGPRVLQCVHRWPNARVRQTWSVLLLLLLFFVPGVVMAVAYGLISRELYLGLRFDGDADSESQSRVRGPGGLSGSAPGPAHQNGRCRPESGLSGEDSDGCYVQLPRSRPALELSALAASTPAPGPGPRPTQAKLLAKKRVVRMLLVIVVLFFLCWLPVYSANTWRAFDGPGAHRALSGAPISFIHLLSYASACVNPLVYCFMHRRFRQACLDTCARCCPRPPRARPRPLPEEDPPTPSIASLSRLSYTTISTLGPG
Description: The capacity of some of the compounds which are the subject of the invention to inhibit the binding of pentagastrin-[beta-alanyl-3-3H(N)] to the gastrin receptor sites on the parietal cell membranes of the fundic mucosa of a guinea-pig stomach was evaluated by comparison with the displacement of pentagastrin induced by proglumide, which is a reference antigastrin compound, by lorglumide, which is a powerful CCK antagonist mentioned above, and by the compound D5 which is the optical antipode (the L-series enantiomer) of the compound D1.
Male guinea pigs weighing about 400-500g were used. After the guinea pig had been killed, its stomach was removed and placed in oxygenated SPB buffer at 37°C (SPB = saline phosphate buffer: 149.6 mM NaCl, 3 mM K₂HPO₄, 0.64 mM NaH₂PO₄, pH 7.3).
After washing in the buffer, the stomach was placed on a petri dish and the antral part discarded.
The mucosa of the remaining part was removed from the underlying muscular part and was then chopped and transferred to a flask containing a collagenase digestion solution, 0.1% BSA and 0.2% glucose. The solution was incubated at 37°C for 10 minutes under agitation and a stream of 0₂.
During the incubation period, the tissue was passed several times through a series of pipettes with decreasing diameters in order to facilitate its digestion. At the end of the period, the tissue was removed and centrifuged at 1000 rpm. The supernatant liquid resulting from the centrifuging was discarded and the pellet washed several times with a washing buffer containing EPTA to remove the collagenase.
The glands were then isolated from the undigested tissue by conventional techniques, suspended in Hepes buffer for binding and incubated together with a radioactive tracer and the compounds under test for 30 minutes at 25°C.
After the supernatant liquid had been removed by centrifuging, the radioactivity associated with the pellet was determined with a liquid scintillator. The specific binding was determined as the difference between the binding in the absence and in the presence of 10⁻⁶ M pentagastrin.
The results obtained are shown in Table 1 which gives the IC50, that is, the concentration (in moles/litre) of the antagonist which can displace 50% of the pentagastrin tritiate from the receptor.

[3] = biological target: T2, central gastrin receptors (Mus musculus, UniProt P56481); experiment: Inhibition of binding of tritiated pentagastrin to mouse cerebral cortex membranes; design: Mouse cortex tissue was homogenised cold in 20 volumes of tris buffer (pH 7.7); from tissue; host or cells: mouse cerebral cortex membranes; species or system mice; details: displacement of pentagastrin tritiate; 40 minutes at 37°C
T2 sequence (P56481 1-453): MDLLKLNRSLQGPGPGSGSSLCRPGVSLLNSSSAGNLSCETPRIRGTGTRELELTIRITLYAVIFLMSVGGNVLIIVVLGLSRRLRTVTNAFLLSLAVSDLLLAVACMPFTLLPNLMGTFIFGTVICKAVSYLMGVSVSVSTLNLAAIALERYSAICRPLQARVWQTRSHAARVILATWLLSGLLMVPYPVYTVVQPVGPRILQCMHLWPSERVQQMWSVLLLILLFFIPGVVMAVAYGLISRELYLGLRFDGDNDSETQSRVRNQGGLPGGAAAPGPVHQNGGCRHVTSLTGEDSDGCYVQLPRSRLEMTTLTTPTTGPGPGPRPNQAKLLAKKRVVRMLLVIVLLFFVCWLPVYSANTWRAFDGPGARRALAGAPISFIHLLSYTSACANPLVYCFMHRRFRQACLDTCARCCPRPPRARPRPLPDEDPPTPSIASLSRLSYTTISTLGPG
Description: Cerebral cortex membranes were therefore used and pentagastrin tritiate was again used as the ligand.
Mouse cortex tissue was homogenised cold in 20 volumes of tris buffer (pH 7.7). After washing and centrifuging, the final pellet was resuspended in 20 volumes of binding buffer containing, inter alia, TRIS, BSA and bacitracin. 0.4 ml of the membrane thus obtained were then incubated with a radioactive tracer and with the compounds under test for 40 minutes at 37°C.
After the supernatant liquid had been removed by centrifuging, the radioactivity associated with the pellet was determined, again with a liquid scintillator. The specific binding is the difference between the binding in the absence and in the presence of 10⁻⁶M pentagastrin.
Again, this gives the IC50s of the compounds tested with the meaning as given above.

[4] = test system: guinea-pig gall bladders stimulated in vitro by CCK-8; experiment: Anti-CCK activity on guinea-pig gall bladder contracted in vitro by CCK-8; details: for IC50 ACTIVITY: CCK-8 10 ng/ml, at least three tests per compound
Description: In order to check the hypothesis that the molecular conformation of the subject compounds is suitable to give them a specific antagonistic activity towards gastrin and not towards CCK, the anticontracturant activity of some of the compounds of the invention was tested on guinea-pig gall bladders stimulated in vitro by CCK-8.
A longitudinal strip of guinea-pig gall bladder was placed in a bath for isolated organs in the presence of Krebs at a temperature of 32°C, continuously oxygenated by an oxygen-CO₂ mixture (95-5 V/V).
The isometric contractions were detected by means of a force transducer and recorded.
The gall bladder was contracted with the use of a 10ng/ml concentration of CCK-8; the antagonistic activity of the compounds towards the contracturant effect of the CCK was determined with the use of different concentrations and the IC50 value, that is, the concentration in mcg/ml of the compound which is able to antagonise the contracturant effect of the CCK by 50%, thus determined.
The results obtained are set out in the table below which gives the compounds tested and the IC50s which were calculated by the regression method on a set of at least three tests for each compound investigated.

[5] = displacement of 50% of pentagastrin tritiate, 30 minutes at 25°C, read-out: IC50

| SMILES | ED50 [1] | IC50 [2, 5] | IC50 [3] | IC50 [2] | IC50 ACTIVITY [4] | concentration relative to that of lorglumide ([4]; times greater than lorglumide) | times less active than the corresponding compound D1 ([2]; L-series vs D-series enantiomer, gastric glands) |
| --- | --- | --- | --- | --- | --- | --- | --- |
| CCC(C)CCNC(=O)C(CCC(=O)O)NC(=O)c1cccc(Cl)c1 (centres unmarked) [A6] | 55 mg/kg | 4.5 µM |  |  |  |  |  |
| CC(C)(C)CCCNC(=O)C(CCC(=O)O)NC(=O)c1cccc(Cl)c1 (racemic) [A9] | 34 mg/kg | 0.2 µM | 0.22 µM |  |  |  |  |
| CCC(C)(CC)CCNC(=O)C(CCC(=O)O)NC(=O)c1cc(Cl)ccc1[N+](=O)[O-] (racemic) [A23] | 40 mg/kg | 0.066 µM | 0.23 µM |  |  |  |  |
| CCC(C)(CC)CCNC(=O)C(CCC(=O)O)NC(=O)c1cccc(Cl)c1 (racemic) [A13] | 33 mg/kg |  | 0.092 µM | 0.091 µM | 32 µg/mL (≈ 80.6 µM) | about 500 times |  |
| CCCN(CCC)C(=O)C(CCC(=O)O)NC(=O)c1ccccc1 (centres unmarked) [Proglumide, reference compound] | 500 mg/kg |  | 220 µM |  |  |  |  |
| CC(C)CCCNC(=O)C(CCC(=O)O)NC(=O)c1cccc(Cl)c1 (racemic) [A4] | 61 mg/kg | 3.3 µM |  |  |  |  |  |
| O=C(O)CCC(NC(=O)c1cccc(Cl)c1)C(=O)NC1CCCCC1 (racemic) [A7] | 93 mg/kg | 17 µM |  |  | > 100 µg/mL |  |  |
| CCCCCNC(=O)C(CCC(=O)O)NC(=O)c1cccc(Cl)c1 (racemic) [A1] | 56 mg/kg | 2 µM | 6.7 µM |  | > 100 µg/mL |  |  |
| CC(C)(C)CCNC(=O)C(CCC(=O)O)NC(=O)c1cc(Cl)cc(Cl)c1 (racemic) [A21] | 34 mg/kg |  | 0.08 µM | 0.069 µM |  |  |  |
| CCCCCCNC(=O)C(CCC(=O)O)NC(=O)c1cccc(C)c1 (racemic) [A18] | 58 mg/kg | 5.8 µM |  |  |  |  |  |
| CCCCCCNC(=O)C(CCC(=O)O)NC(=O)c1cccc(Cl)c1 (racemic) [A3] | 54 mg/kg | 4.8 µM | 7.5 µM |  |  |  |  |
| CCCCCCCNC(=O)C(CCC(=O)O)NC(=O)c1cccc(Cl)c1 (racemic) [A8] | > 100 mg/kg | 12 µM | 39 µM |  |  |  |  |
| CCC(C)(CCNC(=O)C(CCC(=O)O)NC(=O)c1cccc(Cl)c1)C(C)C (centres unmarked) [A16] | 37 mg/kg | 0.29 µM |  |  |  |  |  |
| CCC(CC)CCNC(=O)C(CCC(=O)O)NC(=O)c1cccc(Cl)c1 (racemic) [A11] | 53 mg/kg | 0.65 µM |  |  |  |  |  |
| CCC(C)(C)CCNC(=O)C(CCC(=O)O)NC(=O)c1cccc(Cl)c1 (racemic) [A10] | 37 mg/kg | 0.23 µM | 0.18 µM |  |  |  |  |
| CCC(C)(CC)CCNC(=O)C(CC(=O)O)NC(=O)c1cccc(Cl)c1 (racemic) [A24] | 42 mg/kg | 0.23 µM | 0.29 µM |  |  |  |  |
| CCCCCNC(=O)C(CCC(=O)O)NC(=O)c1cccc(C)c1 (racemic) [A17] | 65 mg/kg | 4.5 µM | 17 µM |  |  |  |  |
| Cc1cccc(C(=O)NC(CCC(=O)O)C(=O)NC2CCCCC2)c1 (racemic) [A19] | 98 mg/kg | 41 µM |  |  |  |  |  |
| O=C(O)CC[C@H](NC(=O)c1cccc(Cl)c1)C(=O)NC1CCCCCC1 [D6, reference compound] |  | 67 µM |  |  |  |  |  |
| CC(C)(C)CCCNC(=O)[C@@H](CCC(=O)O)NC(=O)c1cccc(Cl)c1 [D2] | 34 mg/kg | 0.034 µM | 0.059 µM |  |  |  |  |
| O=C(O)CC[C@@H](NC(=O)c1cccc(Cl)c1)C(=O)NC1CCCCCC1 [D4] | 64 mg/kg | 2.3 µM |  |  |  |  |  |
| CCC(C)(CC)CCNC(=O)C(CCC(=O)O)NC(=O)c1cc(C)cc(C)c1 (racemic) [A22] | 41 mg/kg | 2.9 µM | 2.4 µM |  |  |  |  |
| CCC(CC)(CC)CCNC(=O)C(CCC(=O)O)NC(=O)c1cccc(Cl)c1 (racemic) [A14] | 39 mg/kg | 0.078 µM | 0.093 µM |  |  |  |  |
| O=C(O)CC(NC(=O)c1cccc(Cl)c1)C(=O)NC1CCCCCC1 (racemic) [A25] | 74 mg/kg | 7.3 µM |  |  |  |  |  |
| CCC(C)(CC)CCNC(=O)[C@@H](CCC(=O)O)NC(=O)c1cccc(Cl)c1 [D3] | 30 mg/kg | 0.058 µM |  |  |  |  |  |
| CC(C)CCNC(=O)C(CCC(=O)O)NC(=O)c1cccc(Cl)c1 (racemic) [A2] | 48 mg/kg | 3.1 µM |  |  |  |  |  |
| O=C(O)CCC(NC(=O)c1cccc(Cl)c1)C(=O)NC1CCCCCC1 (racemic) [A12] | 58 mg/kg | 3.8 µM | 6.4 µM |  |  |  |  |
| CC(C)(C)CCNC(=O)[C@H](CCC(=O)O)NC(=O)c1cccc(Cl)c1 [D5, reference compound] | 89 mg/kg | 0.52 µM | 0.66 µM |  |  |  | about 10 times |
| CCC(C)(CC)CCNC(=O)C(CC(=O)O)NC(=O)c1cccc(C)c1 (racemic) [A26] | 52 mg/kg | 0.84 µM |  |  |  |  |  |
